Data on 13 molecules can be found in PMC6009893, “Synthesis, biological activity and molecular modelling studies of shikimic acid derivatives as inhibitors of the shikimate dehydrogenase enzyme of Escherichia coli” (Journal of Enzyme Inhibition and Medicinal Chemistry, 2018).

For orientation: MIC means the least concentration at which growth counts as inhibited. As usually defined, the IC50 is the concentration at which inhibition is half-maximal. What is called Ki is the equilibrium dissociation constant of an inhibitor or competing ligand from its target.

SMILES strings stand for the structures. ≈ marks a conversion by molar mass, not a printed value.

The test system of one assay is E. coli strain JM101. In words: Minimal inhibitory concentration (MIC), broth microdilution. The assay is classed as cell-based. The conditions noted are these: Escherichia coli, LB media, 37 °C, 16 h, tested 4-512 mg/l, duplicate. As for the experimental part: The broth microdilution method[25] was used to determine the MIC of synthesised molecules against E. coli strain JM101. Cells were grown to exponential phase in LB media (OD600nm ∼0.5) and the cultures were diluted to a concentration of 2 × 10^5 colony-forming units/ml. The 96-well plates containing 75 µl of LB media and synthesised compounds were inoculated with 75 µl of the bacterial suspension and shaken at 37 °C for 16 h. Compounds were tested in a range of doubling concentrations between 4 and 512 mg/l with a final dimethylsulphoxide concentration of 0.8% (v/v). LB media supplemented with kanamycin was used as a positive control, and the OD600nm of the DMSO-treated control was taken as representative of 100% bacterial growth. […] Experiments were performed in duplicate.
In general terms: In broth dilution the organism is exposed to a series of concentrations in liquid medium.

Assay [1] deals with T1, EcSDH (shikimate dehydrogenase enzyme of Escherichia coli) (Escherichia coli, UniProt P15770).
T1 construct: 6-Histidine tag (pCold-I) (N, cleaved yes); made in house; host or cells: E. coli ΔaroE::KanR (JW3242, Keio collection) carrying pCold-EcSDH
In words: EcSDH enzymatic activity assay (NADPH oxidation at 340 nm, DHS as substrate). In kind it is biochemical. The conditions noted are these: for KI (dissociation constant for the enzyme-substrate-inhibitor complex): 25 °C, NADPH 0.21 mM, DHS 0.0625-1.5 mM, mixed type inhibition, triplicate. Here is the method:
The enzymatic activity of EcSDH was assayed at 25 °C by monitoring the oxidation of NADPH at 340 nm (ϵ = 6.18 × 10^3 M^−1 cm^−1). All assays were performed in a Genesys 10 S UV-vis spectrophotometer (Thermo Fisher Scientific Inc., Waltham, MA). The reaction mix contained (final volume 200 µl) KH2PO4 100 mM pH 7.5, NADPH 0.21 mM, DHS, synthesised molecules and diluted enzyme. Stored enzyme stocks (200 U/ml) were diluted 1:100 in KH2PO4 100 mM pH 7.5 before use. The reaction was initiated by addition of 2 µl of the diluted EcSDH enzyme and absorbance was measured within 2 min. During assays NADPH concentration was fixed at 0.21 mM, DHS concentrations were 0.0625, 0.125, 0.25, 0.5, 1 and 1.5 mM and concentrations of amides were 0, 0.25, 0.5, 1 and 1.5 mM. Experiments were performed in triplicate.
To determine the inhibition mode Lineweaver–Burk plots of the inverse of velocities (1/v) versus the inverse of substrate concentration 1/[S] were obtained. The Michaelis–Menten constant (Km), maximum velocity (Vmax) and inhibition constants (Ki and KI) were analysed using Equation (1)[22]^,[23]. Where I represent the inhibitor concentration, KI is defined as the dissociation constant for the enzyme-substrate-inhibitor complex and Ki as the dissociation constant for the enzyme-inhibitor complex. Kinetic data were processed by nonlinear regression using the Origin software (OriginLab, Northampton, MA).
Dissociation constants were related to IC50 values following the Cheng–Prusoff Equation (2)[24]. Where IC50 represents the concentration of inhibitor producing 50% of enzyme inhibition. The determined Km of DHS was 92.29 ± 2.70 µM, and 125 µM of DHS was delimited as the substrate concentration [S]: (1) v=Vmax [S]/S1+I/KI+ Km(1+ [I]/Ki) (2) IC50= Km+[S]/Km/Ki+ ([S]/KI).
The inhibitory effect of SA amide-derivatives was tested against EcSDH at […]. To characterise the enzymatic activity for its more biological meaningful reaction, the enzyme was assayed in the direction of SA formation, for this DHS was used as the substrate. The activity of EcSDH enzyme was determined in the presence of different concentrations of synthesised compounds, and Lineweaver–Burk plots of (1/v) versus 1/[S] were obtained. […] To characterise the kinetic parameters, data were analysed using Equation (1). For every synthesised amide Ki < KI indicating a stronger affinity for the substrate free instead of bounded substrate enzyme. […] Despite the similar magnitude of inhibition, it appears that inhibition activity smoothly increases with increase in the alkyl chain length. […] The similar inhibitory effect of diamides may arise with strong participation of the extra SA substituent.

Assay [2] relates to SDH enzyme of Escherichia coli (EcSDH). Also on record: method as in earlier work. To be noted: cited from earlier work.
The target in a further assay is SDH of H. pylori. Also on record: method as in PMID 16972983. To be noted: SA; non-competitive inhibitor; cited from earlier work.
In another assay the test system is H. pylori. Also on record: method as in PMID 16972983. To be noted: in vitro antibacterial activity; cited from earlier work.
Assay [3] has as its system SDH of Pseudomonas putida. Also on record: method as in PMID 24632659. To be noted: cited from earlier work.
The target of another assay is Pisum sativum SDH enzyme. Also on record: method as in PMID 13686343. The conditions noted are these: SA; competitive inhibition; cited from earlier work.

T1 sequence (P15770 whole entry): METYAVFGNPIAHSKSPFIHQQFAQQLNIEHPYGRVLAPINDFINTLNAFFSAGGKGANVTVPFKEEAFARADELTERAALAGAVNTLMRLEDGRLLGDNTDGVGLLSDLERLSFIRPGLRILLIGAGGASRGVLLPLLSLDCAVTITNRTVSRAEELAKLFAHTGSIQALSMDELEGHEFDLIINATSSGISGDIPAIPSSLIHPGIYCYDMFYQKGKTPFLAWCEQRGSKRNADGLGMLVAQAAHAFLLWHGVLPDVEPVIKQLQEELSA

In the assay with E. coli strain JM101, `O=C(NCCNC(=O)C1=C[C@@H](O)[C@@H](O)[C@H](O)C1)C1=C[C@@H](O)[C@@H](O)[C@H](O)C1` [Dim2, (3R,3'R,4S,4'S,5R,5'R)-N,N'-(ethane-1,2-diyl)bis(3,4,5-trihydroxycyclohex-1-ene-1-carboxamide)] came in with an MIC of 512 µg/mL (≈ 1370 µM). For the same molecule, in assay [1], the IC50 is 588 ± 55 µM, the Ki was 416 ± 69 µM and the “KI (dissociation constant for the enzyme-substrate-inhibitor complex)” value is recorded as 831 ± 12 µM.
For `O=C(NCCCNC(=O)C1=C[C@@H](O)[C@@H](O)[C@H](O)C1)C1=C[C@@H](O)[C@@H](O)[C@H](O)C1` [Dim3, (3R,3'R,4S,4'S,5R,5'R)-N,N'-(propane-1,3-diyl)bis(3,4,5-trihydroxycyclohex-1-ene-1-carboxamide)] the same measures were 512 µg/mL (≈ 1330 µM), 589 ± 56 µM, 400 ± 50 µM and 896 ± 72 µM.
For `O=C(NCCCCNC(=O)C1=C[C@@H](O)[C@@H](O)[C@H](O)C1)C1=C[C@@H](O)[C@@H](O)[C@H](O)C1` [Dim4, (3R,3'R,4S,4'S,5R,5'R)-N,N'-(butane-1,4-diyl)bis(3,4,5-trihydroxycyclohex-1-ene-1-carboxamide)], in that order: 512 µg/mL (≈ 1280 µM), 652 ± 65 µM, 458 ± 81 µM and 945 ± 13 µM.
The molecule `O=C(NCCCO)C1=C[C@@H](O)[C@@H](O)[C@H](O)C1` [Mon3, (3R,4S,5R)-3,4,5-trihydroxy-N-(3-hydroxypropyl)cyclohex-1-ene-1-carboxamide] gave an MIC in the assay with E. coli strain JM101 of 512 µg/mL (≈ 2210 µM). In assay [1], inhibition was half-maximal at 949 ± 33 µM (IC50), the Ki came to 733 ± 67 µM and the “KI (dissociation constant for the enzyme-substrate-inhibitor complex)” value came out at 1214 ± 58 µM.
For `O=C(NCCCCO)C1=C[C@@H](O)[C@@H](O)[C@H](O)C1` [Mon4, (3R,4S,5R)-3,4,5-trihydroxy-N-(4-hydroxybutyl)cyclohex-1-ene-1-carboxamide] the same measures were 512 µg/mL (≈ 2090 µM), 882 ± 54 µM, 717 ± 71 µM and 1145 ± 130 µM.
For `O=C(NCCCCCO)C1=C[C@@H](O)[C@@H](O)[C@H](O)C1` [Mon5, (3R,4S,5R)-3,4,5-trihydroxy-N-(5-hydroxypentyl)cyclohex-1-ene-1-carboxamide], in that order: 512 µg/mL (≈ 1970 µM), 953 ± 10 µM, 642 ± 34 µM and 1483 ± 91 µM.
For `O=C(NCCCCCCO)C1=C[C@@H](O)[C@@H](O)[C@H](O)C1` [Mon6, (3R,4S,5R)-3,4,5-trihydroxy-N-(6-hydroxyhexyl)cyclohex-1-ene-1-carboxamide] the same measures were 512 µg/mL (≈ 1870 µM), 829 ± 49 µM, 587 ± 49 µM and 1188 ± 26 µM.
On to `O=C(O)C1=C[C@@H](O)[C@@H](O)[C@H](O)C1` [SA, (-)-shikimic acid], for which, in assay [2], the Ki was 160 µM.
Regarding `COc1cc(/C=C/C(=O)CC(=O)/C=C/c2ccc(O)c(OC)c2)ccc1O` [curcumin], the Ki at SDH of H. pylori was 6 µM. Further, the MIC in the assay on H. pylori was 16 µg/mL (≈ 43.4 µM).
As for `O=C(O[C@@H]1Cc2c(O)cc(O)cc2O[C@@H]1c1cc(O)c(O)c(O)c1)c1cc(O)c(O)c(O)c1` [epigallocatechin gallate], the IC50 in assay [3] was 3 µM.
As for `O=C(O)c1cc(O)c(O)c(O)c1` [gallic acid], the Ki at Pisum sativum SDH enzyme is 380 µM.
On to `O=C(O)c1ccc(O)c(O)c1` [protocatechuic acid], for which the Ki on Pisum sativum SDH enzyme is 750 µM.
`COc1cc(C=O)ccc1O` [vanillin]: the Ki on Pisum sativum SDH enzyme is 93 µM.
